Assay results as given in article PMC11241437, “Structure-Based Analysis of Cefaclor Pharmacokinetic Diversity According to Human Peptide Transporter-1 Genetic Polymorphism” (International Journal of Molecular Sciences, 2024).

Columns and labels:
[1] = type: in vitro ADME; conditions: human
Protocol: Supplementary Information S3
Determination of cefaclor plasma concentrations
Concentrations of unchanged cefaclor in plasma were determined by applying high performance liquid chromatography coupled with an ultraviolet (HPLC-UV), which has been established and validated in previous studies. The LC10 ADvp system (Shimadzu Inc., Kyoto, Japan) was used as an analysis device. Briefly describing the analysis method, plasma samples were pretreated through liquid-liquid extraction using 6% (v/v) trichloroacetic acid and then selectively separated on a Symmetry C18 column (5 μm, 4.6 × 150 mm; Waters Co., Milford, MA, USA) using water (mobile phase A) and methanol (mobile phase B) as mobile phases.
The composition ratio of mobile phases A and B was isocratically eluted at 88:12 (v/v), and the quantification of cefaclor was performed at a wavelength of 265 nm. Cephradine, which has a similar structure to cefaclor, was used as an internal standard (IS), and the retention times in the column for cefaclor and IS were 15 min and 23 min, respectively. The lower limit of quantification was 0.1 μg/mL, and the linear calibration curve was secured with a coefficient of determination of 0.99 or higher up to the concentration range of 10 μg/mL. The […]
calibration curve. […]

PEPT1 = system: PEPT1; design: method as in PMID 9950279; conditions: Caco-2; cited from earlier work
clinical = conditions: male, human, in vivo, po, 250 mg
Protocol: Cefaclor bioequivalence results in 24 healthy Korean men obtained from a previous study were reused for the analysis of cefaclor pharmacokinetics according to PEPT1 genetic polymorphisms in this study. Among the previous bioequivalence results, those for the test formulation were excluded, and only the clinical results for the reference drug, cefaclor 250 mg capsule (Eli Lilly and Company, Indianapolis, IN, USA; Lot number: L1692Y1) were used. […] Table S2 presents the demographic information of the subjects, including physiological and biochemical parameters. The determination of clinical biochemical parameter values was performed by serological analysis through a dry automated analyzer. The analytical instrument was a microside VITROS (Ortho Clinical Diagnostics, Raritan, NJ, USA) operated by reflectance spectrophotometry. Information on the selection and progress of clinical trial participants is presented in Supplementary Information S1, and information on clinical trial design and sampling is presented in Supplementary Information S2. The clinical trial protocol was thoroughly reviewed and officially approved (approval number: 112; 09.03.2004) by the Institutional Review Board of the Institute of Bioequivalence and Bridging Study (Gwangju, Republic of Korea). Information on the high-performance liquid chromatography-ultraviolet (HPLC-UV) method used to quantify cefaclor in plasma samples is briefly presented in Supplementary Information S3.
Genetic polymorphism information for all subjects participating in the clinical trial could be obtained using blank plasma samples derived from each subject. The genetic information targeted in this study was SLC15A1 exons 5 and 16 as the PEPT1 coding gene. SNPs in SLC15A1 exons 5 and 16 were analyzed through pyrosequencing and restriction fragment length polymorphism (RFLP) via polymerase chain reaction (PCR), respectively. The target SNPs in SLC15A1 exons 5 and 16 were c.381G>A and c.1287G>C, respectively, and the genetic polymorphism analysis methods for these were presented in Supplementary Information S4.
The results of the analysis of plasma concentration over time after single oral administration of cefaclor 250 mg capsule could be calculated as cefaclor pharmacokinetic parameter values through non-compartmental analysis (NCA). NCA was performed using Phoenix WinNonlin software (version 8.4, Certara Inc., Princeton, NJ, USA). The main calculated pharmacokinetic parameters are area under the curve in a plasma concentration-time graph (AUC), clearance (CL/F), peak plasma drug concentration after administration (Cmax), elimination half-life (T1/2), mean residence time (MRT), time to reach Cmax (Tmax), and volume of the distribution (V/F). Specific calculation methods for pharmacokinetic parameters are presented in Supplementary Information S5. The calculated pharmacokinetic parameter values were classified according to the genetic polymorphisms of SLC15A1 exons 5 and 16 and compared between genotype groups. Comparison of significant differences between the three genotype groups (SLC15A1 exon 5) was performed using one-way analysis of variance (ANOVA), and comparison of significant differences between two genotype groups (SLC15A1 exon 16) was performed using a two-tailed t test. All significance judgments in statistical tests were based on a p value of 0.05. Additionally, differences in pharmacokinetics between groups were confirmed through a graphic comparison of cefaclor plasma concentration profiles between genotypes classified according to genetic polymorphisms of SLC15A1 exons 5 and 16.
Supplementary Information S2
Clinical trial design and sampling
This bioequivalence study was performed as randomized, single-dose, open-label, crossover, and two-way studies (with a washout period of 7 days). Prior to the clinical trial, subjects had a heparin-locked (150 unit/mL) JELCO 22G angio-catheter (Smiths Medical, Minneapolis, […]

CC1=C(C(=O)O)N2C(=O)[C@@H](NC(=O)[C@H](N)C3=CCC=CC3)[C@H]2SC1 [cephradine]
stabilities in plasma samples [1]: 85-115% | substrate interaction with PEPT1 (PEPT1): may have substrate interactions with PEPT1

CC1=C(C(=O)O)N2C(=O)[C@@H](NC(=O)[C@H](N)c3ccccc3)[C@H]2SC1 [cephalexin]
substrate interaction with PEPT1 (PEPT1): may have substrate interactions with PEPT1

Cn1nnnc1SCC1=C(C(=O)O)N2C(=O)[C@@H](NC(=O)[C@H](O)c3ccccc3)[C@H]2SC1 [cefamandole]
substrate interaction with PEPT1 (PEPT1): may have substrate interactions with PEPT1

CO/N=C(\C(=O)N[C@@H]1C(=O)N2C(C(=O)O)=C(COC(N)=O)CS[C@H]12)c1ccco1 [cefuroxime]
substrate interaction with PEPT1 (PEPT1): may have substrate interactions with PEPT1

CC1=C(C(=O)O)N2C(=O)[C@@H](NC(=O)[C@H](N)c3ccc(O)cc3)[C@H]2SC1 [cefadroxil]
substrate interaction with PEPT1 (PEPT1): may have substrate interactions with PEPT1

CC(=O)OCC1=C(C(=O)O)N2C(=O)[C@@H](NC(=O)Cc3cccs3)[C@H]2SC1 [cephalotin]
substrate interaction with PEPT1 (PEPT1): may have substrate interactions with PEPT1

N[C@@H](C(=O)N[C@@H]1C(=O)N2C(C(=O)O)=C(Cl)CS[C@H]12)c1ccccc1 [cefaclor]
AUC (clinical; AUCall): 7590 ± 1520 ng·h/mL | AUC(0-inf) (clinical; AUCinf): 7740 ± 1530 ng·h/mL | Cmax (clinical; Cmax): 6510 ± 1900 ng/mL | MRT (clinical; MRT (mean residence time)): 75.6 ± 11.4 min | half-life (clinical; T1/2 (elimination half-life)): 36 ± 3.6 min | Tmax (clinical; Tmax): 49.2 ± 21 min | substrate interaction with PEPT1 (PEPT1): interaction substrate with PEPT1

C=CC1=C(C(=O)O)N2C(=O)[C@@H](NC(=O)/C(=N\OCC(=O)O)c3csc(N)n3)[C@H]2SC1 [cefixime]
substrate interaction with PEPT1 (PEPT1): may have substrate interactions with PEPT1
